In PMC12645589, “mPEG@ELA-11 Alleviates Atherosclerosis via AKT-ER Stress-Mediated Macrophage Modulation” (BME Frontiers, 2025):
Read-outs that look alike come from different tables or passages of the source.

How the values were obtained:
RAW264.7 macrophages [1] = experiment: Foam cell formation, Oil Red O staining; assay type: cell-based, murine; conditions: n = 3; for effect of co-treatment on the protective (foam cell inhibiting) effect of ELA-11: ox-LDL 50 μg/ml 48 h + ELA-11, modulator 1 μM, vs ox-LDL + ELA-11 group
Protocol: To assess the impact of ELA-11 on foam cell formation, RAW264.7 macrophages were pretreated with ELA-11 (1 μM) for 2 h before being exposed to ox-LDL (50 μg/ml) for 48 h.
(§1) For foam cell formation assays, cells were seeded in 6-well plates at 1 × 10^6 cells/well. Cells were pretreated with ELA-11 (1 μM) for 2 h before exposure to oxidized low-density lipoprotein (ox-LDL, 50 or 100 μg/ml) for 48 h. Where indicated, cells were cotreated with tunicamycin (1 μM, ER stress activator), ML221 (1 μM, APJ receptor antagonist), Recilisib (1 μM, AKT activator), or 4-PBA (1 μM, ER stress inhibitor).
Cells were fixed with 4% paraformaldehyde for 30 min, rinsed with 60% isopropanol, and stained with Oil Red O working solution for 10 min. After washing with distilled water, stained cells were imaged using a light microscope. For quantification, staining intensity was analyzed using ImageJ software.

RAW264.7 macrophages [2] = experiment: CCK-8 cell viability assay; assay type: cell-based, murine
Protocol: Finally, the cytotoxicity of mPEG@ELA-11 was assessed using the CCK-8 assay. […] The absence of cytotoxicity is a critical factor for the potential clinical application of mPEG@ELA-11.
Cell viability was assessed using the CCK-8 kit (Biosharp, China) according to the manufacturer’s instructions. Cells were seeded in 96-well plates at 1 × 10^5 cells/ml and treated with various compounds for 24 to 72 h before analysis.

ApoE^-/- mice [3] = experiment: Biosafety evaluation in mice (histology, body weight, blood biochemistry); conditions: for histopathological changes in major organs (heart, liver, spleen, lungs, and kidneys): 1 mg/kg every 3 days; for tissue morphology of heart, liver, spleen, lungs, and kidneys (H&E), long-term toxicity: 1 mg/kg via the tail vein, once every 3 days for 2 consecutive months, n = 6; for changes in body weight: throughout the treatment period, n=6, p>0.05
Protocol: To evaluate the safety and biocompatibility of the treatments, histological analysis was performed on major organs (heart, liver, spleen, lungs, and kidneys) from all groups.
At the study endpoint, mice were euthanized under isoflurane anesthesia. Blood was collected for biochemical analysis, and the entire aorta was harvested from the ascending aorta to the iliac bifurcation.
Histological examination of the heart, liver, spleen, lungs, and kidneys in different treatments groups which were respectively injected with the same dose (1 mg/kg) of PBS, ELA-11, and mPEG@ELA-11 via the tail vein, once every 3 days for 2 consecutive months. […] Representative images were chosen from n = 6 mice per group.

AKT phosphorylation = experiment: Western blot of AKT phosphorylation; assay type: cell-based, murine; conditions: ox-LDL + ELA-11 + modulator (1 μM), n = 3
Protocol: as §1
(§2) Cells were lysed in RIPA buffer supplemented with protease and phosphatase inhibitors. Equal protein amounts were separated by 10% sodium dodecyl sulfate–polyacrylamide gel electrophoresis, followed by transfer to polyvinylidene fluoride membranes. Membranes were blocked with 5% milk and incubated overnight at 4 °C with primary antibodies against p-PERK, PERK, p-eIF2α, eIF2α, ATF4, CHOP, p-AKT, AKT, and GAPDH, followed by horseradish peroxidase-conjugated secondary antibodies. Protein bands were visualized using enhanced chemiluminescence reagents.

[4] = system: ER stress-associated proteins (p-PERK, p-eIF2α, CHOP, and ATF4); experiment: Western blot of ER stress markers; assay type: cell-based, murine; conditions: ox-LDL + ELA-11 + modulator (1 μM), n = 3
Protocol: as §1, §2

[5] = pH-responsive in vitro release of ELA-11; assay type: physicochemical
Protocol: To assess the pH-responsive release behavior of mPEG@ELA-11, in vitro release studies were conducted. […] At 12 h post-injection, only 45% of Cy5-mPEG@ELA-11 was degraded, while 70% of Cy5-ELA-11 had already been degraded.
(§3) NP characterization was performed using FT-IR, NMR, DLS, and TEM. pH-responsive drug release was evaluated at pH values of 5.5, 6.5, and 7.4. For fluorescence imaging, NPs were labeled with ICG, Cy5 or Cy5.5.

[6] = Colloidal stability in physiological media over 5 days; assay type: physicochemical; conditions: mean ± SD
Protocol: The colloidal stability of mPEG@ELA-11 was evaluated in various physiological media over a 5-day period. The hydrodynamic diameter remained stable in PBS, serum, and 1640 culture medium, with only minor increases observed over time (Fig. 5E). On day 1, the sizes in PBS, serum, and 1640 medium were 36 ± 2.12, 43 ± 3.01, and 44 ± 4.53 nm, respectively. By day 5, these had increased slightly to 42 ± 3.36, 49 ± 3.49, and 50 ± 2.98 nm, respectively.

ApoE^-/- mice [7] = experiment: Serum inflammatory markers and lipids in treated ApoE-/- mice; assay type: in vivo
Description: At the study endpoint, mice were euthanized under isoflurane anesthesia. Blood was collected for biochemical analysis, and the entire aorta was harvested from the ascending aorta to the iliac bifurcation. For en face analysis, aortas were stained with Oil Red O. The aortic root was sectioned for histological analysis, including Oil Red O, H&E, Masson’s trichrome, and immunofluorescence staining for CD31 and α-SMA.

ApoE^-/- mice [8] = experiment: Atherosclerosis in ApoE-/- mice fed a high-fat diet; assay type: in vivo; conditions: HFD
Description: To evaluate the therapeutic efficacy of ELA-11 in AS, ApoE^-/- mice fed a high-fat diet (HFD) were utilized as an established AS model. Male ApoE^-/- mice were randomly allocated into 3 groups (n = 6 per group): a control group fed a normal chow diet (NCD), an HFD group treated with phosphate-buffered saline (HFD + PBS), and a treatment group treated with ELA-11 (HFD + ELA-11). ApoE^-/- mice were initiated on HFD at 8 weeks of age. Four weeks later, at the beginning of the fifth week of HFD feeding, mice in the HFD + ELA-11 group received intraperitoneal injections of ELA-11 (1 mg/kg) every 3 days for a total of 19 injections. Mice were sacrificed at 20 weeks of age (Fig. 4A).
To evaluate the therapeutic potential of mPEG@ELA-11 NPs in vivo, a series of experiments were conducted using ApoE^-/- mice fed an HFD for 3 months to induce AS. The mice were randomly assigned to 4 groups (n = 6): a negative control group fed an NCD, an HFD group treated with PBS (HFD + PBS), an HFD group treated with free ELA-11 (HFD + ELA-11), and an HFD group treated with mPEG@ELA-11 NPs (HFD + mPEG@ELA-11). The administration route, frequency, and dosage were the same as described above.
Male ApoE^-/- mice (26 to 31 g, 8 weeks old) were obtained from GemPharmatech Co., Ltd. and housed under specific pathogen-free conditions. Mice were randomly allocated into 4 groups (n = 6/group): NCD, HFD + PBS, HFD + ELA-11, and HFD + mPEG@ELA-11. The HFD (Research Diets D12079B) consisted of 21% fat and 0.21% cholesterol. Drug treatments (1 mg/kg) were administered intraperitoneally every 3 days for 8 weeks, beginning at week 13. All animal procedures were approved by the institutional animal care committee.

[9] = Nanoparticle size by DLS and TEM; assay type: physicochemical
Protocol: The slight difference between DLS and TEM measurements is expected, as DLS measures the hydrodynamic diameter in solution, while TEM visualizes dehydrated NPs.
as §3

[10] = n = 6, P < 0.05, the words describe the HFD group, i.e. treated groups lower

Molecule: O=C(O)CCCc1ccccc1 [4-PBA, 4-phenylbutyric acid]
- foam cell formation (Oil Red O), rescue experiment (RAW264.7 macrophages [1]; ox-LDL 50 μg/ml 48 h, cotreatment, P < 0.0001 vs ox-LDL group): comparable

Molecule: CSCC[C@H](NC(=O)[C@@H](N)CS)C(=O)N1CCC[C@H]1C(=O)N[C@@H](CC(C)C)C(=O)N[C@@H](Cc1cnc[nH]1)C(=O)N[C@@H](CO)C(=O)N[C@@H](CCCNC(=N)N)C(=O)N[C@H](C(=O)N1CCC[C@H]1C(=O)N[C@@H](Cc1ccccc1)C(=O)N1CCC[C@H]1C(=O)O)C(C)C [ELA-11]
- cytotoxicity (cell viability assay) (RAW264.7 macrophages [2]): no significant cytotoxicity
- histopathological changes in major organs (heart, liver, spleen, lungs, and kidneys) (ApoE^-/- mice [3]): No significant histopathological changes
- tissue morphology of heart, liver, spleen, lungs, and kidneys (H&E), long-term toxicity (ApoE^-/- mice [3]): no appreciable changes in tissue morphology
- changes in body weight (ApoE^-/- mice [3]): No significant histopathological changes in any of the organs or abnormal changes in body weight were observed

Molecule: O=C(Oc1coc(CSc2ncccn2)cc1=O)c1ccc([N+](=O)[O-])cc1 [ML221]
- cytotoxicity (cell viability assay) (RAW264.7 macrophages [2]): no significant cytotoxicity
- effect of co-treatment on the inhibition of AKT signaling by ELA-11 (AKT phosphorylation): attenuated
- effect of co-treatment on the suppression of ER stress markers by ELA-11 [4]: partially reverse
- effect of co-treatment on the protective (foam cell inhibiting) effect of ELA-11 (RAW264.7 macrophages [1]): significantly attenuated

Molecule: O=C(O)c1ccc(/C=C/S(=O)(=O)Cc2ccc(Cl)cc2)cc1 [Recilisib]
- effect of co-treatment on the suppression of ER stress markers by ELA-11 [4]: lost its inhibitory effect
- effect of co-treatment on the protective (foam cell inhibiting) effect of ELA-11 (RAW264.7 macrophages [1]): reversed

Molecule: Tunicamycin
- cytotoxicity (cell viability assay) (RAW264.7 macrophages [2]; CCK-8, ox-LDL-induced Raw264.7 macrophages, concentrations employed in the study, 24 and 48 hours, n=4, p > 0.05 (Fig. S1)): no significant cytotoxicity
- effect of co-treatment on the inhibition of AKT signaling by ELA-11 (AKT phosphorylation): maintained its inhibitory effect
- effect of co-treatment on the suppression of ER stress markers by ELA-11 [4]: diminished
- effect of co-treatment on the protective (foam cell inhibiting) effect of ELA-11 (RAW264.7 macrophages [1]): significantly attenuated

Molecule: methoxy polyethylene glycol@Elabela-11 [mPEG@ELA-11]
- release of ELA-11 ([5]; pH 5.5, after 48 h): 91.2%
- release of ELA-11 ([5]; pH 6.5, after 48 h): 74.1%
- release of ELA-11 ([5]; pH 7.4, after 48 h): 38.7%
- hydrodynamic diameter, colloidal stability ([6]; 1640 culture medium, day 1): 44 ± 4.53 nm
- hydrodynamic diameter, colloidal stability ([6]; 1640 culture medium, day 5): 50 ± 2.98 nm
- hydrodynamic diameter, colloidal stability ([6]; PBS, day 1): 36 ± 2.12 nm
- hydrodynamic diameter, colloidal stability ([6]; PBS, day 5): 42 ± 3.36 nm
- hydrodynamic diameter, colloidal stability ([6]; serum, day 1): 43 ± 3.01 nm
- hydrodynamic diameter, colloidal stability ([6]; serum, day 5): 49 ± 3.49 nm
- IL-1β levels in blood serum (ApoE^-/- mice [7]; HFD, among the groups, n = 6): no significant differences
- IL-6 in blood serum compared to the HFD group (ApoE^-/- mice [7]; HFD, n = 6, P < 0.05): significantly lower
- TNF-α in blood serum compared to the HFD group (ApoE^-/- mice [7]; HFD, n = 6, P < 0.05): significantly lower
- LDL-C: HFD group compared to the treatment group (ApoE^-/- mice [7]; [10]): significantly higher
- total cholesterol: HFD group compared to the treatment group (ApoE^-/- mice [7]; [10]): significantly higher
- triglycerides: HFD group compared to the treatment group (ApoE^-/- mice [7]; [10]): significantly higher
- necrotic core size in aortic root sections, compared to free ELA-11 (ApoE^-/- mice [8]; 1 mg/kg i.p. every 3 days, H&E, n = 6, P < 0.05): more substantial decrease
- overall plaque area in aortic root sections, compared to free ELA-11 (ApoE^-/- mice [8]; 1 mg/kg i.p. every 3 days, Oil Red O, n = 6, P < 0.001): more substantial decrease
- collagen content within the plaques (Masson's trichrome, aortic root) (ApoE^-/- mice [8]; 1 mg/kg i.p. every 3 days, n = 6, P < 0.0001, no significant difference between the 2 treatment groups): increased collagen content
- atherosclerotic plaque area of the entire aorta (Oil Red O), compared to free ELA-11 (ApoE^-/- mice [8]; 1 mg/kg i.p. every 3 days, n = 6, P < 0.001): greater reduction
- integrity of the vascular endothelium (CD31 immunofluorescence) (ApoE^-/- mice [8]; n = 6, P < 0.001, P < 0.0001): more effective than free ELA-11
- smooth muscle cell proliferation in the plaque area (α-SMA immunofluorescence) (ApoE^-/- mice [8]; vs ELA-11 and HFD + PBS group, n = 6, P < 0.05, P < 0.01): significantly inhibited smooth muscle cell proliferation
- histopathological changes in major organs (heart, liver, spleen, lungs, and kidneys) (ApoE^-/- mice [3]): No significant histopathological changes
- tissue morphology of heart, liver, spleen, lungs, and kidneys (H&E), long-term toxicity (ApoE^-/- mice [3]): no appreciable changes in tissue morphology
- changes in body weight (ApoE^-/- mice [3]): No significant histopathological changes in any of the organs or abnormal changes in body weight were observed
- size (TEM) ([9]; dehydrated NPs): ~ 25 nm
- hydrodynamic diameter (DLS) ([9]; in PBS): ~ 35 nm
